In ChEMBL document CHEMBL1139205, “Newer tetracycline derivatives: synthesis, anti-HIV, antimycobacterial activities and inhibition of HIV-1 integrase” (Bioorg Med Chem Lett, 2007):
≈ marks a conversion by molar mass, not a printed value.

Key:
[1] = system: Human immunodeficiency virus 1; test: Antiviral activity against HIV1 3B in CEM cells assessed as inhibition of viral-induced cytopathicity; assay type: functional, organism-based; details: Human immunodeficiency virus 1, 3B, CCRF-CEM
[2] = Cytotoxicity against CEM cells after 5 days by MTT method; assay type: cell-based; details: human, CCRF-CEM (CEM) cells
[3] = biological target: T1, Human immunodeficiency virus type 1 integrase (Human immunodeficiency virus 1, UniProt Q7ZJM1); test: Inhibition of HIV1 recombinant integrase 3'-processing activity
T1 sequence (Q7ZJM1 whole entry): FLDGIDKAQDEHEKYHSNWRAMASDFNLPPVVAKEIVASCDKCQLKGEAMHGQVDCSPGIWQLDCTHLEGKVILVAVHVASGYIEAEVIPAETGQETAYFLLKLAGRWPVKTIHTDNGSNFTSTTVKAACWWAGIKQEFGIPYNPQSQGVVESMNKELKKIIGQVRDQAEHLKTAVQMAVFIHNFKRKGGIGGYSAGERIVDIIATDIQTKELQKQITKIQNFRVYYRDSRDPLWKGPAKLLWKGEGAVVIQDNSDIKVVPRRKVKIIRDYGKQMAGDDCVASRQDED

[4] = biological target: T1, Human immunodeficiency virus type 1 integrase; test: Inhibition of HIV1 recombinant integrase strand transfer activity
[5] = system: Mycobacterium tuberculosis; test: Antimycobacterial activity against Mycobacterium tuberculosis by agar dilution method; assay type: functional
[6] = Selectivity index, ratio of CC50 for CEM cells to EC50 for HIV1 3B; assay type: functional, CCRF-CEM

Row | Compound | EC50 [1] | CC50 at 120 h [2] | IC50 [3] | IC50 [4] | MIC [5] | Ratio CC50/EC50 [6]
1 | CN(C)[C@@H]1C(O)=C(C(=O)NCN2CCN(c3cc4c(cc3F)c(=O)c(C(=O)O)cn4C3CC3)CC2)C(=O)[C@@]2(O)C(O)=C3C(=O)c4c(O)cccc4[C@@](C)(O)[C@H]3[C@H](O)[C@@H]12 | > 17.7 µM | 17.7 µM | 38 µM | 17 µM | 0.39 µg/mL (≈ 0.485 µM) | 
2 | CCn1cc(C(=O)O)c(=O)c2cc(F)c(N3CCN(CNC(=O)C4=C(O)[C@@H](N(C)C)[C@@H]5C[C@@H]6Cc7c(N(C)C)ccc(O)c7C(=O)C6=C(O)[C@]5(O)C4=O)C(C)C3)c(F)c21 (stereo not given in full) | 5.2 µM | > 200 µM | 20 µM | 18 µM | 0.2 µg/mL (≈ 0.244 µM) | >38
3 | COc1c(N2CCN(CNC(=O)C3=C(O)[C@@H](N(C)C)[C@@H]4C[C@@H]5Cc6c(N(C)C)ccc(O)c6C(=O)C5=C(O)[C@]4(O)C3=O)C(C)C2)c(F)cc2c(=O)c(C(=O)O)cn(C3CC3)c12 (stereo not given in full) | > 126 µM | 126 µM |  |  | 0.2 µg/mL (≈ 0.237 µM) | 
4 | CCn1cc(C(=O)O)c(=O)c2cc(F)c(N3CCN(CNC(=O)C4=C(O)[C@@H](N(C)C)[C@@H]5[C@@H](O)[C@H]6C(=C(O)[C@]5(O)C4=O)C(=O)c4c(O)cccc4[C@@]6(C)O)C(C)C3)c(F)c21 (stereo not given in full) | 15.1 µM | 37.4 µM |  |  | 0.78 µg/mL (≈ 0.947 µM) | 
5 | CN(C)[C@@H]1C(O)=C(C(=O)NCN2CCN(c3cc4c(cc3F)c(=O)c(C(=O)O)cn4C3CC3)CC2)C(=O)[C@@]2(O)C(O)=C3C(=O)c4c(O)cccc4[C@@](C)(O)[C@H]3C[C@@H]12 | 8.4 µM | 141 µM | 20 µM | 12 µM | 0.39 µg/mL (≈ 0.495 µM) | 
6 | COc1c(N2CCN(CNC(=O)C3=C(O)[C@@H](N(C)C)[C@@H]4[C@@H](O)[C@H]5C(=C(O)[C@]4(O)C3=O)C(=O)c3c(O)cccc3[C@@]5(C)O)C(C)C2)c(F)cc2c(=O)c(C(=O)O)cn(C3CC3)c12 (stereo not given in full) | > 28.9 µM | 28.9 µM | 28 µM | 13.5 µM | 0.39 µg/mL (≈ 0.46 µM) | 
7 | CCn1cc(C(=O)O)c(=O)c2cc(F)c(N3CCN(CNC(=O)C4=C(O)[C@@H](N(C)C)[C@@H]5C[C@@H]6Cc7c(N(C)C)ccc(O)c7C(=O)C6=C(O)[C@]5(O)C4=O)CC3)cc21 | > 130 µM | 130 µM |  |  | 0.78 µg/mL (≈ 0.989 µM) | 
8 | CN(C)c1ccc(O)c2c1C[C@H]1C[C@H]3[C@H](N(C)C)C(O)=C(C(=O)NCN4CCN(c5cc6c(cc5F)c(=O)c(C(=O)O)cn6C5CC5)CC4)C(=O)[C@@]3(O)C(O)=C1C2=O | > 120 µM | 120 µM |  |  | 0.78 µg/mL (≈ 0.974 µM) | 
9 | CCn1cc(C(=O)O)c(=O)c2cc(F)c(N3CCN(CNC(=O)C4=C(O)[C@@H](N(C)C)[C@@H]5C[C@H]6C(=C(O)[C@]5(O)C4=O)C(=O)c4c(O)cccc4[C@@]6(C)O)C(C)C3)c(F)c21 (stereo not given in full) | 7.58 µM | > 200 µM | 65 µM | 44 µM | 1.56 µg/mL (≈ 1.93 µM) | 
10 | COc1c(N2CCN(CNC(=O)C3=C(O)[C@@H](N(C)C)[C@@H]4C[C@H]5C(=C(O)[C@]4(O)C3=O)C(=O)c3c(O)cccc3[C@@]5(C)O)C(C)C2)c(F)cc2c(=O)c(C(=O)O)cn(C3CC3)c12 (stereo not given in full) | 20.2 µM | 140 µM |  |  | 0.2 µg/mL (≈ 0.24 µM) | 
11 | CCn1cc(C(=O)O)c(=O)c2cc(F)c(N3CCN(CNC(=O)C4=C(O)[C@@H](N(C)C)[C@@H]5[C@@H](O)[C@H]6C(=C(O)[C@]5(O)C4=O)C(=O)c4c(O)cccc4[C@@]6(C)O)CC3)cc21 | 12.2 µM | 40 µM | 21 µM | 12 µM | 0.78 µg/mL (≈ 0.985 µM) | 
12 | CCn1cc(C(=O)O)c(=O)c2cc(F)c(N3CCN(CNC(=O)C4=C(O)[C@@H](N(C)C)[C@@H]5C[C@H]6C(=C(O)[C@]5(O)C4=O)C(=O)c4c(O)cccc4[C@@]6(C)O)CC3)cc21 | 14.6 µM | 131 µM | 20 µM | 13 µM | 0.78 µg/mL (≈ 1.01 µM) | 
13 | CCn1cc(C(=O)O)c(=O)c2cc(F)c(N3CCNC(C)C3)c(F)c21 (stereo not given) [LOMEFLOXACIN] |  |  |  |  | 6.25 µg/mL (≈ 17.8 µM) | 
14 | CN(C)c1ccc(O)c2c1C[C@H]1C[C@H]3[C@H](N(C)C)C(O)=C(C(N)=O)C(=O)[C@@]3(O)C(O)=C1C2=O [MINOCYCLINE] | > 52.1 µM | 52.1 µM |  |  | > 6.25 µg/mL | 
15 | CN(C)[C@@H]1C(O)=C(C(=O)NCN2CCCC2)C(=O)[C@@]2(O)C(O)=C3C(=O)c4c(O)cccc4[C@@](C)(O)[C@H]3C[C@@H]12 [ROLITETRACYCLINE] | > 45.5 µM | 45.5 µM | 28 µM | 34 µM | > 6.25 µg/mL | 
16 | CN(C)[C@@H]1C(O)=C(C(N)=O)C(=O)[C@@]2(O)C(O)=C3C(=O)c4c(O)cccc4[C@@](C)(O)[C@H]3C[C@@H]12 [TETRACYCLINE] | > 40.5 µM | 40.5 µM | 204 µM | 188 µM | > 6.25 µg/mL | 
